# Where two headings read alike, the source gives them in different places.
# Molecular target: T1, VAV1 (Homo sapiens, UniProt P15498+Q96SW2)
# T1 construct: A heterozygous VAV1 C-terminal HiBiT knock-in pool was generated at Monte Rosa Therapeutics from a clonal Jurkat cell; endogenous in cells; host or cells: Jurkat clone stably expressing LgBiT, homozygous GSPT1-G575N; heterozygous VAV1-HiBiT knock-in pool
# Assay: VAV1 degradation activity, VAV1-HiBiT knock-in Jurkat luminescence assay (Example A, Table 1)
# Format: cell-based
# Settings: VAV1-HiBiT knock-in Jurkat cells, luminescence read at 6 and 24 hours; for Dmax: Jurkat
# How it was run: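 Luminescence was measured at 6 and 24 h after adding compound (10 μM stock) to VAV1-HiBiT knock-in Jurkat cells, which had been pre-incubated ~16 h at 37° C. in RPMI/10% FBS containing Endurazine. EC50 values came from control-normalised responses fitted to a 3-parameter logistic model with hillslope fixed at 1.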
# [1] = read-out: VAV1 DC50 (nM), class
Structure (SMILES),Dmax (read-out: VAV1 Dmax %),"Dmax (read-out: VAV1 Dmax %, class)",DC50 (read-out: VAV1 DC50),DC50 [1]
"O=C1CCC(c2cccc(-c3ccc(N4C(=O)OCC45CCC5)cc3)c2Cl)C(=O)N1 (stereo not drawn) [Compound 416, 3-(2-chloro-4′-(6-oxo-7-oxa-5-azaspiro[3.4]octan-5-yl)-[1,1′-biphenyl]-3-yl)piperidine-2,6-dione]",98%,> 90%,3.54 nM,≤ 100 nM
"O=C1CCC(c2cccc(-c3ccc(-n4cccc(CC(F)(F)F)c4=O)cc3)c2Cl)C(=O)N1 (stereo not drawn) [Compound 417, 3-(2-chloro-4′-(2-oxo-3-(2,2,2-trifluoroethyl)pyridin-1(2H)-yl)-[1,1′-biphenyl]-3-yl)piperidine-2,6-dione]",98.5%,> 90%,6.68 nM,≤ 100 nM
"O=C1CCC(c2cccc(-c3ccc(N4C(=O)CC45CCOCC5)cc3)c2Cl)C(=O)N1 (stereo not drawn) [Compound 418, 3-(2-chloro-4′-(2-oxo-7-oxa-1-azaspiro-[3.5]nonan-1-yl)-[1,1′-biphenyl]-3-yl)piperidine-2,6-dione]",45.2%,< 60%,≥ 10000 nM,> 1000 nM
"O=C1CCC(c2cccc(-c3ccc(-n4cccnc4=O)c(F)c3)c2Cl)C(=O)N1 (stereo not drawn) [Compound 419, 3-(2-chloro-3′-fluoro-4′-(2-oxopyrimidin-1(2H)-yl)-[1,1′-biphenyl]-3-yl)piperidine-2,6-dione]",90.7%,> 90%,43.1 nM,≤ 100 nM
"Cc1cnc(Cc2ccc(-c3cccc(C4CCC(=O)NC4=O)c3Cl)cc2)nc1 (stereo not drawn) [Compound 420, 3-(2-chloro-4′-((5-methylpyrimidin-2-yl)methyl)-[1,1′-biphenyl]-3-yl)piperidine-2,6-dione]",98.8%,> 90%,2.43 nM,≤ 100 nM
"COc1ccnc(Cc2ccc(-c3cccc(C4CCC(=O)NC4=O)c3Cl)cc2)n1 (stereo not drawn) [Compound 421, 3-(2-chloro-4′-((4-methoxypyrimidin-2-yl)methyl)-[1,1′-biphenyl]-3-yl)piperidine-2,6-dione]",97.8%,> 90%,6.96 nM,≤ 100 nM
"COc1cnc(Cc2ccc(-c3cccc(C4CCC(=O)NC4=O)c3Cl)cc2)nc1 (stereo not drawn) [Compound 422, 3-(2-chloro-4′-((5-methoxypyrimidin-2-yl)methyl)-[1,1′-biphenyl]-3-yl)piperidine-2,6-dione]",98.4%,> 90%,4.35 nM,≤ 100 nM
"O=C1CCC(c2cccc(-c3ccc(CS(=O)(=O)N4CCCC4)cc3)c2Cl)C(=O)N1 (stereo not drawn) [Compound 423, 3-(2-chloro-4′-((pyrrolidin-1-ylsulfonyl)methyl)-[1,1′-biphenyl]-3-yl)piperidine-2,6-dione]",74.6%,60 to 90%,144 nM,100 to 1000 nM
"CN1CCCN(Cc2ccc(-c3cccc(C4CCC(=O)NC4=O)c3Cl)cc2)C1=O (stereo not drawn) [Compound 424, 3-(2-chloro-4′-((3-methyl-2-oxotetrahydropyrimidin-1(2H)-yl)methyl)-[1,1′-biphenyl]-3-yl)piperidine-2,6-dione]",95.3%,> 90%,9.94 nM,≤ 100 nM
"CN1CCCN(Cc2ccc(-c3cccc(C4CCC(=O)NC4=O)c3Cl)cc2F)C1=O (stereo not drawn) [Compound 425, 3-(2-chloro-3′-fluoro-4′-((3-methyl-2-oxotetrahydropyrimidin-1(2H)-yl)methyl)-[1,1′-biphenyl]-3-yl)piperidine-2,6-dione]",96.5%,> 90%,10.7 nM,≤ 100 nM
"O=C1CCC(c2cccc(-c3ccc(N4C(=O)OCC45CC5)cc3)c2Cl)C(=O)N1 (stereo not drawn) [Compound 426, 3-(2-chloro-4′-(5-oxo-6-oxa-4-azaspiro[2.4]heptan-4-yl)-[1,1′-biphenyl]-3-yl)piperidine-2,6-dione]",96.5%,> 90%,8.9 nM,≤ 100 nM
"O=C1CCC(c2cccc(-c3cnc(-n4ccccc4=O)c(F)c3)c2Cl)C(=O)N1 (stereo not drawn) [Compound 427, 3-(2-chloro-3-(3′-fluoro-2-oxo-2H-[1,2′-bipyridin]-5′-yl)phenyl)piperidine-2,6-dione]",79.6%,60 to 90%,246 nM,100 to 1000 nM
"Cn1ccc(C(F)(F)F)c(-c2ccc(-c3cccc(C4CCC(=O)NC4=O)c3Cl)cc2)c1=O (stereo not drawn) [Compound 428, 3-(2-chloro-4′-(1-methyl-2-oxo-4-(trifluoromethyl)-1,2-dihydropyridin-3-yl)-[1,1′-biphenyl]-3-yl)piperidine-2,6-dione]",98.8%,> 90%,2.25 nM,≤ 100 nM
"O=C1CCC(c2cccc(-c3ccc(N4CCCN(CC(F)F)C4=O)cc3)c2Cl)C(=O)N1 (stereo not drawn) [Compound 429, 3-(2-chloro-4′-(3-(2,2-difluoroethyl)-2-oxotetrahydropyrimidin-1(2H)-yl)-[1,1′-biphenyl]-3-yl)piperidine-2,6-dione]",96.9%,> 90%,5.19 nM,≤ 100 nM
"O=C1CCC(c2cccc(-c3ccc(Cc4ncco4)nc3)c2Cl)C(=O)N1 (stereo not drawn) [Compound 430, 3-(2-chloro-3-(6-(oxazol-2-ylmethyl)pyridin-3-yl)phenyl)piperidine-2,6-dione]",72.6%,60 to 90%,261 nM,100 to 1000 nM
"O=C1CCC(c2cccc(-c3ccc(CN4CCCOC4=O)nc3)c2Cl)C(=O)N1 (stereo not drawn) [Compound 431, 3-(2-chloro-3-(6-((2-oxo-1,3-oxazinan-3-yl)methyl)pyridin-3-yl)phenyl)piperidine-2,6-dione]",23.5%,< 60%,≥ 10000 nM,> 1000 nM
"CN1CCCN(Cc2ccc(-c3cccc(C4CCC(=O)NC4=O)c3Cl)cn2)C1=O (stereo not drawn) [Compound 432, 3-(2-chloro-3-(6-((3-methyl-2-oxotetrahydropyrimidin-1(2H)-yl)methyl)pyridin-3-yl)phenyl)piperidine-2,6-dione]",71.9%,60 to 90%,182 nM,100 to 1000 nM
"O=C1CCC(c2cccc(-c3ccc(CN4CCCCC4=O)nc3)c2Cl)C(=O)N1 (stereo not drawn) [Compound 433, 3-(2-chloro-3-(6-((2-oxopiperidin-1-yl)methyl)pyridin-3-yl)phenyl)piperidine-2,6-dione]",33.6%,< 60%,≥ 10000 nM,> 1000 nM
"O=C1CCC(c2cccc(-c3ccc(Cn4cccnc4=O)nc3)c2Cl)C(=O)N1 (stereo not drawn) [Compound 434, 3-(2-chloro-3-(6-((2-oxopyrimidin-1(2H)-yl)methyl)pyridin-3-yl)phenyl)piperidine-2,6-dione]",46.2%,< 60%,≥ 10000 nM,> 1000 nM
"CN1CCCN(c2ccc(-c3cccc(C4CCC(=O)NC4=O)c3Cl)cn2)C1=O (stereo not drawn) [Compound 435, 3-(2-chloro-3-(6-(3-methyl-2-oxotetrahydropyrimidin-1(2H)-yl)pyridin-3-yl)phenyl)piperidine-2,6-dione]",70.8%,60 to 90%,330 nM,100 to 1000 nM
"CN1CCCN(c2ccc(-c3cccc(C4CCC(=O)NC4=O)c3Cl)cc2F)C1=O (stereo not drawn) [Compound 436, 3-(2-chloro-3′-fluoro-4′-(3-methyl-2-oxotetrahydropyrimidin-1(2H)-yl)-[1,1′-biphenyl]-3-yl)piperidine-2,6-dione]",96%,> 90%,8.75 nM,≤ 100 nM
"Cc1ccnc(Cc2ccc(-c3cccc(C4CCC(=O)NC4=O)c3Cl)cc2)n1 (stereo not drawn) [Compound 437, 3-(2-chloro-4′-((4-methylpyrimidin-2-yl)methyl)-[1,1′-biphenyl]-3-yl)piperidine-2,6-dione]",96.5%,> 90%,5.92 nM,≤ 100 nM
"O=C1CCC(c2cccc(-c3ccc(S(=O)(=O)N4CCCC4)cc3)c2Cl)C(=O)N1 (stereo not drawn) [Compound 438, 3-(2-chloro-4′-(pyrrolidin-1-ylsulfonyl)-[1,1′-biphenyl]-3-yl) piperidine-2,6-dione]",90.5%,> 90%,91.7 nM,≤ 100 nM
"CN1Cc2cccc(-c3ccc(-c4cccc(C5CCC(=O)NC5=O)c4Cl)cc3)c2C1=O (stereo not drawn) [Compound 439, 3-(2-chloro-4′-(2-methyl-3-oxoisoindolin-4-yl)-[1,1′-biphenyl]-3-yl)piperidine-2,6-dione]",89.3%,60 to 90%,4.48 nM,≤ 100 nM
"CC1(Cc2ccc(-c3cccc(C4CCC(=O)NC4=O)c3Cl)cc2)COC1 (stereo not drawn) [Compound 440, 3-(2-chloro-4′-((3-methyloxetan-3-yl)methyl)-[1,1′-biphenyl]-3-yl)piperidine-2,6-dione]",94.3%,> 90%,21.7 nM,≤ 100 nM
"C[C@@H]1COCC(=O)N1c1ccc(-c2cccc(C3CCC(=O)NC3=O)c2Cl)cc1 (stereo partly drawn) [Compound 441, 3-(2-chloro-4′-((R)-3-methyl-5-oxomorpholino)-[1,1′-biphenyl]-3-yl)piperidine-2,6-dione]",90.5%,> 90%,14.2 nM,≤ 100 nM
"O=C1CCC(c2cccc(-c3ccc(Cc4cocn4)cc3)c2Cl)C(=O)N1 (stereo not drawn) [Compound 442, 3-(2-chloro-4′-(oxazol-4-ylmethyl)-[1,1′-biphenyl]-3-yl)piperidine-2,6-dione]",95.8%,> 90%,34.5 nM,≤ 100 nM
